Key:
[1] = test system: bilateral common carotid arteries occlusion C57BL/6J mice; assay: Y-maze test; format: in vivo; conditions: single agent, after 7 days administration; for spontaneous alternation behavior rate (Alternation), memory behavior: high dose 100 mg/kg oral; for spontaneous alternation behavior rate (Alternation): low dose 40 mg/kg oral, compared to distilled water group (Group 2)
Protocol: (§1) Experimental Example: 10-week-old male C57BL/6J mice (CLEA Japan, Inc. approximately 25 g of average body weight per mouse) were preliminarily acclimated for 1 week, and provided for experiments. Citrulline and glutathione were obtained from KYOWA HAKKO BIO CO., LTD.
(§2) C57BL/6J mice were divided into a sham-operation group (Group 1) and a bilateral common carotid arteries occlusion group, which was performed under halothane anesthesia for 20 minutes. One day after reperfusion, the bilateral common carotid arteries occlusion group was further divided into a distilled water-treated group (Group 2), a low-dose citrulline-treated group (40 mg/kg: Group 3), a low-dose glutathione-treated group (40 mg/kg: Group 4), a high-dose citrulline-treated group (100 mg/kg: Group 5), a high-dose glutathione-treated group (100 mg/kg: Group 6), and a combination treatment group of a low dose of citrulline and a low dose of glutathione (each 40 mg/kg: Group 7). Each sample was orally administered for 12 days. One week after starting administration, learning memory-improving effects were examined by a Y-maze test, a passive avoidance test, and a novel object recognition test. After evaluating learning memory functions, the hippocampus was removed and viability of hippocampal nerve cells was evaluated.
In the Y-maze test, a Y-maze apparatus with three arms (50×16×32 cm) was used. Mice were placed at any one arm of the Y-maze and were allowed to explore freely through the maze for 8 minutes. The sequence of arm entries was recorded. The number of entries into each arm was counted during the measurement time, which was defined as the total number of entries. Of them, the successive entry into the three different arms was examined, and this number was defined as the spontaneous alternation behavior number. The spontaneous alternation behavior number was divided by (the total number of arm entries minus two), and then multiplied by 100, which was defined as the spontaneous alternation behavior rate (Alternation) and used as an index for spontaneous alternation behavior.

[2] = test system: bilateral common carotid arteries occlusion C57BL/6J mice; assay: Passive avoidance test; format: in vivo; conditions: single agent, after 7 days administration; for latency time spent in the light compartment, memory behavior: high dose 100 mg/kg oral; for latency time spent in the light compartment: low dose 40 mg/kg oral, compared to Group 2
Protocol: as §1, §2
The passive avoidance test was performed using a box consisting of dark (25×25×25 cm) and light compartments (14×10×25 cm) and being equipped with an electrical stimulation apparatus at the bottom of the dark compartment. During training, as soon as the mouse entered the dark compartment from the light compartment, the door was closed, and an electrical stimulation (0.3 mA, for 2 seconds) was delivered. Twenty four hours after training, the mouse was placed again in the light compartment, and the latency time spent in the light compartment was recorded with a maximum latency of 300 seconds.

[3] = test system: bilateral common carotid arteries occlusion C57BL/6J mice; assay: Novel object recognition test; format: in vivo; conditions: single agent, after 7 days administration; for frequency of exploring the novel object, memory behavior: high dose 100 mg/kg oral; for frequency of exploring the novel object: low dose 40 mg/kg oral
Protocol: as §1, §2
The novel object recognition test was performed after mice were individually acclimated to the open field apparatus (35×25×35 cm) for 2 days. During training, mice were allowed to explore freely for 10 minutes in an apparatus where two identical objects were symmetrically placed. After 1 hour, one object was replaced by a novel object, and mice were allowed to explore freely for 5 minutes. Object exploration was defined as standing on the objects, touching the object with the nose, or sniffing the object within 1 cm from the object. A ratio of the frequency of exploring the familiar or novel object over the total exploration frequency was calculated, and used as an index for visual recognition memory.

[4] = test system: hippocampal nerve cells (CA1 pyramidal cell layer); assay: Evaluation of viability of hippocampal nerve cells; format: in vivo, mice; conditions: single agent, 12 days administration
Protocol: as §1, §2
Twelve days after bilateral occlusion of the common carotid arteries, mice were anesthetized with pentobarbital sodium, and perfused with ice-cold phosphate buffer (PBS, pH 7.4) until the blood in the body was completely removed. Immediately, mice were perfused with a fixative solution containing 4% paraformaldehyde. The brain tissues were fixed at 4° C. for 24 hours, and coronal sections having a thickness of 50 μm were prepared. Serial sections containing the hippocampus were stained with propidium iodide (PI, 5 μmol/L) dissolved in PBS and observed under a fluorescent microscope. Surviving and non-surviving nerve cells in the CA1 pyramidal cell layer of the hippocampus were counted at 1.4 to 1.8 mm posterior to bregma, and cells with PI-positive nuclei and typical morphological characteristics were defined as […]. The cell viability was calculated from a ratio to the average number of surviving nerve cells in Group 1.

[5] = low dose 40 mg/kg oral, compared to Group 2

## NC(=O)NCCC[C@H](N)C(=O)O [citrulline]
[1]
  spontaneous alternation behavior rate (Alternation), memory behavior: remarkably improved effect of memory behavior
  spontaneous alternation behavior rate (Alternation): cannot be improved
[2]
  latency time spent in the light compartment, memory behavior: remarkably improved effect of memory behavior
  latency time spent in the light compartment: cannot be improved
[3]
  frequency of exploring the novel object, memory behavior: remarkably improved effect of memory behavior
  frequency of exploring the novel object: cannot be increased
[4]; high dose 100 mg/kg oral
  viability of hippocampal nerve cells: nerve cell-protecting effect
[4]; [5]
  viability of hippocampal nerve cells: cannot be improved

## N[C@@H](CCC(=O)N[C@@H](CS)C(=O)NCC(=O)O)C(=O)O [glutathione]
[1]
  spontaneous alternation behavior rate (Alternation), memory behavior: remarkably improved effect of memory behavior
  spontaneous alternation behavior rate (Alternation): cannot be improved
[2]
  latency time spent in the light compartment, memory behavior: remarkably improved effect of memory behavior
  latency time spent in the light compartment: cannot be improved
[3]
  frequency of exploring the novel object, memory behavior: remarkably improved effect of memory behavior
  frequency of exploring the novel object: cannot be increased
[4]; high dose 100 mg/kg oral
  viability of hippocampal nerve cells: nerve cell-protecting effect
[4]; [5]
  viability of hippocampal nerve cells: cannot be improved

From patent US20150265670A1, “AGENT FOR PREVENTING OR IMPROVING DECLINE IN BRAIN FUNCTION” (KYOWA HAKKO BIO CO., LTD., priority 2012, published 2015)
